This assay is described as follows: Inhibitory activity against O-linked N-acetyl-glucosaminidase (O-GlcNAc'ase). The arrangement: species or system Rattus norvegicus.

Take `CC(=O)NC1[C@@H](O)[C@@H](O)C(CO)O[C@H]1SC1CC(=O)N(c2ccc(C(=O)c3ccccc3)cc2)C1=O` (stereo partly specified): the Ki (as a rule, the dissociation constant of the complex between target and ligand, obtained from inhibition or displacement) is 50 µM.

For the origin of these results see ChEMBL document CHEMBL1134127, “A mechanism-based affinity-labeling agent for possible use in isolating N-acetylglucosaminidase” (Bioorg Med Chem Lett, 2001).
